In one test the target is T1, ADP P2Y12 (Homo sapiens, UniProt Q9H244).
T1 construct: expressed in transfected cells
As to the kind of experiment: FLIPR calcium assay transducing Gi-coupled signaling to the Gq pathway (inhibition of calcium mobilization). In kind it is cell-based. As to conditions: HEK 293 cells co-transfected with P2Y12 and Gqi5, ADP at EC60-70 dose. The source says:
A FLIPR Calcium Assay Transducing Gi-Coupled Signaling to the Gq Pathway
The ADP P2Y12 subtype is a Gi coupled GPCR, which mediates inhibition of adenylate cyclase leading to decreased cAMP while Gq proteins primarily activate phospholipase C, which stimulates inositol-1,4,5-triphosphate (IP3) formation and a subsequent increase in intracellular Ca^2+ concentration, which can be easily measured by FLIPR. Prior to the development of a method to convert a Gi coupled GPCR signaling to a Gq coupled GPCR signaling, a significant barrier existed for the functional testing and screening of Gi coupled GPCRs. One popular method, GTPγS migration, is slow, produces a small signal and generates radioactive waste. The discovery that a small switch in the amino acid sequence in the Gi protein could convert it to a protein mediating a Gq coupled response has led to the development of robust, high throughput assays for this valuable receptor subtype.
The FLIPR-based HTS assay transducing the Gi signaling to the Gq pathway is described below.
pcDNA3hygroP2Y12 containing a hygromycin resistance gene and pLEC1-Gqi5-HA containing a neomycin resistance gene (licensed from Molecular Devices, Sunnyvale, Calif.) were co-transfected into Human embryonic kidney (HEK) 293 cells with SuperFect (Qiagen, Valencia, Calif.). Cell clones were selected in the presence of 600 μg/ml hygromycin B (Life Technologies, Carlsbad, Calif.) and 1 mg/ml of G418 (Mediatech, Herndon, Va.). Drug resistant colonies were picked and screened by FLIPR and the gene expression was further confirmed by RT-PCR. Positive clones were maintained in growth medium (DMEM supplemented with 10% FBS, 1×p/s) containing 400 μg/ml of G418 and 200 μg/ml of hygromycin.
The day before the assay, cells are seeded in clear, flat-bottom black-wall, tissue culture treated polystyrene 96- or 384-well plates and incubated at 37° C., 5% CO2. 50 μl of complete dye loading solution (FLIPR Calcium Assay Kit, Molecular Devices) was added to each well containing 100 μl of culture media. The cells were incubated for at least 30 min at 37° C., in 5% CO2 before initiating the assay on the FLIPR. The agonist effect of ADP was tested and EC50 was determined prior to compound testing. The EC60-70 dose was used.
The antagonist compounds were prepared at 4× and the agonists were diluted at 5× the concentration desired in the test wells, and then aliquoted into the sample plates. The sample plates and the cell plate were placed in the FLIPR assay chamber. A first addition (50 μl) was made at the start of reading and a second addition (50 μl) was made after 5 min of reading. Raw fluorescence data was exported for each well and tabulated versus time within an ASCII file. Data was then imported into Excel and the peak response over the basal level was determined. The percent inhibition for each compound was calculated by the change in fluorescent density as a % inhibition of the control ADP response to obtain an IC50, as shown in Table 1 (wherein N/A means Not Applicable).
On the technique in general: Calcium flux is commonly read through the fluorescence of an indicator in the cells.

The target in another test is T2, P2Y12 receptor (Homo sapiens, UniProt Q9H244).
T2 construct: expressed in transfected cells
T2 sequence (Q9H244 whole entry): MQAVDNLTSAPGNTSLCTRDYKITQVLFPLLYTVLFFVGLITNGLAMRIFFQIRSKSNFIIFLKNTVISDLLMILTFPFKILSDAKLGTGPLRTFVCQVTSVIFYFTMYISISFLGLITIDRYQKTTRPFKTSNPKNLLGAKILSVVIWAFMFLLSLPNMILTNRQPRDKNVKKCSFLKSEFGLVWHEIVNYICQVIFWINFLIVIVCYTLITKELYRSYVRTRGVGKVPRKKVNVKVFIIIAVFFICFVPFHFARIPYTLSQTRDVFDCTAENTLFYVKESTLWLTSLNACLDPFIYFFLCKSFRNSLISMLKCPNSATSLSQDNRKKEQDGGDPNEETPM
Kind of test: Whole cell receptor binding assay for 2-MeS[3H]-ADP. As to conditions: whole HEK 293 cells transfected with P2Y12; 2-MeS[3H]-ADP 3 nM; 30 min at 37° C.; read-out: Inhibition of Receptor Binding IC50. How it is done: A whole cell-binding assay for 2-MeS [^3H]-ADP (Custom synthesized by Amersham BioScience, Piscataway, N.J.) to the P2Y12 receptor was performed.
A P2Y12 cDNA containing hygromycin resistant gene was transfected in HEK 293 cells. A stable cell line was obtained by a cloning selection method. The cells were cultured in DMEM supplemented with 10% FBS and 1× of p/s.
On the day of the assay, the cells were harvested and resuspended in 0.25% BSA-DMEM and adjusted to a cell concentration of 1.6×10^6/ml. […] The reaction was then incubated for 30 min at 37° C. and stopped by adding cold DMEM. […] The plates were dyed in a 37° C. oven for 1-2 hours and 50 μl of MicroScint-20 (PerkinElmer) was added to each well. The radioactivity was measured using a TOPCOUNT beta counter (Packard).

The next test concerns washed platelets. Kind of test: In vitro platelet aggregation. In kind it is cell-based. As to conditions: Homo sapiens, washed platelets from healthy volunteers, agonist (ADP) at 60-70% aggregation, % inhibition of control ADP response. How it is done:
Platelet aggregation studies were performed according to a published method (Bednar, B., Condra, C., Gould, R. J., and Connolly, T. M., Throm. Res., 77:453-463 (1995). Platelet-rich plasma (PRP) concentrates prepared from healthy volunteers who were aspirin free for at least 7 days by venipuncture using ACD-A as anticoagulant was purchased from Biological Specialties, Inc. (Colmar, Pa.). PRP was centrifuged at 730 g for 15 min. The platelet pellet was washed twice in CGS buffer (13 mM sodium citrate, 30 mM glucose, 120 mM NaCl, pH 6.5) containing 1 μ/ml apyrase (grade V, Sigma-Aldrich, St. Louis, Mo.), 1 mM EGTA, and resuspended in Tyrode's buffer (140 mM NaCl, 2.7 mM KCl, 12 mM NaHCO3, 0.76 mM Na2HPO4, 5.5 mM dextrose, 5.0 mM Hepes, 0.2% BSA, pH 7.4). The platelets were diluted to 3×10^8 platelets/ml and kept >45 min at 37° C. before use. 105 μl of washed platelets, 2 mM CaCl2 and […] of fibrinogen were added to a 96-well microliter plate.
Platelet aggregation was initiated by the addition of serial concentrations of ADP (BioData Corp. Horsham, Pa.). Buffer was added to one set of control wells. The assay plate was stirred constantly and intermittently placed in a microplate reader (Softmax, Molecular Devices, Menlo Park, Calif.) to read optical density (650 nm) at 0 and 5 minutes after the addition of the compound solutions. Aggregation was calculated as the decrease in optical density between the time 0- and 5-min measurements and expressed as % of aggregation. For the inhibition assay, platelet aggregation was conducted as described above except for compound additions. Test compounds were prepared in 100% DMSO and stored.
On the day of the assay, test compounds were diluted in the buffer containing 3% of DMSO as a 10× working solution. 15 μl of compound solutions were added to 105 μl of platelets 5 min prior to the addition of CaCl2 and fibrinogen.

Some results are limits rather than exact numbers.

T1 sequence (Q9H244 whole entry): as above

In general, IC50 refers to the midpoint of a concentration-inhibition curve. Regarding `CCCCNc1nc(SCCC)nc2c1nnn2[C@@H]1C=C[C@H](O)[C@@H](O)[C@H]1O` [Cpd 1, (1S,2R,3S,6R)-6-(7-butylamino-5-propylsulfanyl-[1,2,3]triazolo[4,5-d]pyrimidin-3-yl)-cyclohex-4-ene-1,2,3-triol], the values for the IC50 at ADP P2Y12, at P2Y12 receptor and with washed platelets were 2.12 µM, 9.03 µM and 15.2 µM, respectively.
In the case of `CCCSc1nc(NC[C@H]2CCCO2)c2nnn([C@@H]3CC[C@H](O)[C@@H](O)[C@H]3O)c2n1` [Cpd 17, (1S,2R,3S,4R)-4-(5-propylsulfanyl-7-{[(2R)-tetrahydro-furan-2-ylmethyl]-amino}-[1,2,3]triazolo[4,5-d]pyrimidin-3-yl)-cyclohexane-1,2,3-triol], the half-inhibitory concentration (IC50) at ADP P2Y12 and with washed platelets was over 30 µM in each case.
On to `CCCSc1nc(N[C@@H]2C[C@H]2c2ccccc2)c2nnn([C@@H]3C=C[C@H](OCC(=O)O)[C@@H](O)[C@H]3O)c2n1` (mixture of isomers) [Cpd 11, [(1S,4R,5S,6S)-5,6-dihydroxy-4-{7-[(1RS,2SR)-2-phenyl-cyclopropylamino]-5-propylsulfanyl-[1,2,3]triazolo[4,5-d]pyrimidin-3-yl}-cyclohex-2-enyloxy]-acetic acid], for which the IC50 on ADP P2Y12 was 2.2 µM; at P2Y12 receptor, 1.49 µM; with washed platelets, 2.91 µM.
As to `CCCSc1nc(N[C@@H]2C[C@H]2c2ccccc2)c2nnn([C@H]3[C@H](O)[C@H](O)[C@@H](O)[C@H](O)[C@@H]3O)c2n1` (racemic) [Cpd 9, (1R,2R,4S,5S)-6-{7-[(1RS,2SR)-phenyl-cyclopropylamino]-5-propylsulfanyl-[1,2,3]triazolo[4,5-d]pyrimidin-3-yl}-cyclohexane-1,2,3,4,5-pentaol], the half-inhibitory concentration (IC50) came out at 2.96 µM on ADP P2Y12, 5.04 µM on P2Y12 receptor and 15 µM in the test with washed platelets.
With `CCCSc1nc(N[C@@H]2C[C@H]2c2ccccc2)c2nnn([C@@H]3C=C[C@H](O)[C@@H](O)[C@H]3O)c2n1` (mixture of isomers) [Cpd 5, (1S,2R,3S,6R)-6-{7-[(1RS,2SR)-2-phenyl-cyclopropylamino]-5-propylsulfanyl-[1,2,3]triazolo[4,5-d]pyrimidin-3-yl}-cyclohex-4-ene-1,2,3-triol], the IC50 is 0.745 µM at ADP P2Y12, 2.1 µM at P2Y12 receptor and 5.05 µM with washed platelets.
As to `CCCSc1nc(NCC2CCCN2CC)c2nnn([C@@H]3CC[C@H](O)[C@@H](O)[C@H]3O)c2n1` (stereo partly drawn) [Cpd 21, (1S,2R,3S,4R)-4-{7-[(1-ethyl-pyrrolidin-2-ylmethyl)-amino]-5-propylsulfanyl-[1,2,3]triazolo[4,5-d]pyrimidin-3-yl}-cyclohexane-1,2,3-triol], the IC50 at ADP P2Y12 and with washed platelets was over 30 µM throughout.
Consider `CCCSc1nc(N[C@@H]2C[C@H]2c2ccccc2)c2nnn([C@@H]3CC[C@H](O)[C@@H](O)[C@H]3O)c2n1` (mixture of isomers) [Cpd 14, (1S,2R,3S,4R)-4-{7-[(1RS,2SR)-2-phenyl-cyclopropylamino]-5-propylsulfanyl-[1,2,3]triazolo[4,5-d]pyrimidin-3-yl}-cyclohexane-1,2,3-triol], for which the results for the concentration for half-maximal inhibition (IC50) on ADP P2Y12, on P2Y12 receptor and with washed platelets were 0.456 µM, 1.35 µM and 3.1 µM, respectively.

Source of the values: patent US8148385B2, “Substituted [1,2,3] triazolo[4,5-d]pyrimidine derivatives as ADP P2Y12 receptor antagonists” (Janssen Pharmaceutica N.V., priority 2006, dated 2012).
